One test relates to E. faecalis (S613). Particulars: DapS, BEI HM-334, MIC90, broth microdilution, MHB + 50 mg L^−1 calcium, 35 °C, 22 h, A600, triplicate. (In broth dilution the organism is exposed to a series of concentrations in liquid medium.)
The subject of test [1] is S. aureus (SAUSA300_1713 NE573). Particulars: DapR, strain JE2 transposon mutant NE573, BEI NR-47116; MIC90, broth microdilution, MHB + 50 mg L^−1 calcium, 35 °C, 22 h, A600, triplicate.
Test [2] has as its system S. aureus (SAUSA300_1715 NE1656). The settings on record: DapR, strain JE2 transposon mutant NE1656, BEI NR-48198; MIC90, broth microdilution, MHB + 50 mg L^−1 calcium, 35 °C, 22 h, A600, triplicate.
For another test, the system named is E. faecalis (R712). Particulars: DapR, BEI HM-335; MIC90, broth microdilution, MHB + 50 mg L^−1 calcium, 35 °C, 22 h, A600, triplicate.
The subject of a further test is S. aureus (hVISA, SR220). Particulars: DapS, VISA, BEI NR-50512; MIC90, broth microdilution, MHB + 50 mg L^−1 calcium, 35 °C, 22 h, A600, triplicate.
In test [3] the test system is E. faecalis (hVRE, ATCC 700802). Particulars: vancomycin-resistant Enterococcus; Table 1, Fig. S1.
The test system of the next test is S. aureus (ATCC 25923). Particulars: DapS strain; MIC90, broth microdilution, MHB + 50 mg L^−1 calcium, inoculum 1×10^5–5×10^5 CFU/mL, 35 °C, 22 h, A600, triplicate; converted from μM.

Structures are written as SMILES. Where “and” joins values, the source holds several entries; their conditions need not be identical. Identical values can stand only once. Like-named read-outs stand apart in the source and are kept apart here. Numbered stars: 1 amine (or outer) side, 2 acyl side, 3 side chain; on linkers, the order of the positions; unused ones are H or OH. Bridge positions count the residues as written; N and C are the ends. Square brackets hold non-standard residues; d marks the D form. Peptide text beside a SMILES is read from it. * marks the point of attachment. X11 = O=C([C@H](Cc1c[nH]c2cc(C/C=C/c3ccccc3)ccc12)N[*:1])[*:2]; X10 = C=C(C)/C=C/C(C)n1cc(C[C@H](N[*:1])C(=O)[*:2])c2ccccc21; X12 = C=C(C)/C=C/Cc1[nH]c2ccccc2c1C[C@H](N[*:1])C(=O)[*:2]; X1 = O=C([C@H](Cc1c[nH]c2cc(CC3=CCCCC3)ccc12)N[*:1])[*:2]; X8 = C=CC1(n2cc(C[C@H](N[*:1])C(=O)[*:2])c3ccccc32)CCCCC1; X2 = O=C([C@H](Cc1cn(CC=C2CCCCC2)c2ccccc12)N[*:1])[*:2]; X6 = CC/C(C)=C/Cn1cc(C[C@H](N[*:1])C(=O)[*:2])c2ccccc21; X4 = CCC(=CCn1cc(C[C@H](N[*:1])C(=O)[*:2])c2ccccc21)CC; X7 = O=C([C@H](Cc1cn(CC2=CCCCC2)c2ccccc12)N[*:1])[*:2]; X9 = CC(C)=CCn1cc(C[C@H](N[*:1])C(=O)[*:2])c2ccccc21; Glu(3R-Me) = C[C@H](CC(=O)O)[C@H](N)C(=O)O; Kyn = Nc1ccccc1C(=O)C[C@H](N)C(=O)O; Decanoyl = CCCCCCCCCC(=O)*; Orn = NCCC[C@H](N)C(=O)O

In the case of `CCCCCCCCCC(=O)N[C@@H](Cc1c[nH]c2ccccc12)C(=O)N[C@H](CC(N)=O)C(=O)N[C@@H](CC(=O)O)C(=O)N[C@@H]1C(=O)NCC(=O)N[C@@H](CCCN)C(=O)N[C@@H](CC(=O)O)C(=O)N[C@H](C)C(=O)N[C@@H](CC(=O)O)C(=O)NCC(=O)N[C@H](CO)C(=O)N[C@@H]([C@H](C)CC(=O)O)C(=O)N[C@@H](CC(=O)c2ccccc2N)C(=O)O[C@@H]1C` [DAP, Daptomycin], the MIC (in general, the smallest concentration in the dilution series that meets the test's criterion for growth inhibition) was 16.2 µg/mL in the test on E. faecalis (S613); ~ 16 μg mL^−1 in the test on E. faecalis (S613) (listed as Dap); 16.2 mg/L in test [1]; 16.2 mg/L in test [2]; greater than 32.4 mg/L with E. faecalis (R712); 4.0 mg/L in the test with S. aureus (hVISA, SR220).

In the case of `CCCCCCCCCC(=O)N[C@@H](Cc1cn(CC=C(C)C)c2ccccc12)C(=O)N[C@H](CC(N)=O)C(=O)N[C@@H](CC(=O)O)C(=O)N[C@@H]1C(=O)NCC(=O)N[C@@H](CCCN)C(=O)N[C@@H](CC(=O)O)C(=O)N[C@H](C)C(=O)N[C@@H](CC(=O)O)C(=O)NCC(=O)N[C@H](CO)C(=O)N[C@@H]([C@H](C)CC(=O)O)C(=O)N[C@@H](CC(=O)c2ccccc2N)C(=O)O[C@@H]1C` [compound 40, N1-Trp-prenyl-Dap] (Decanoyl-[X9][dN]DTG[Orn]D[dA]DG[dS][Glu(3R-Me)][Kyn]; ester 4-C), the MIC in the test with E. faecalis (R712) came to 33.7 mg/L; with S. aureus (hVISA, SR220), 0.5 mg/L.

For `CCCCCCCCCC(=O)N[C@@H](Cc1cn(C/C=C(\C)CC)c2ccccc12)C(=O)N[C@H](CC(N)=O)C(=O)N[C@@H](CC(=O)O)C(=O)N[C@@H]1C(=O)NCC(=O)N[C@@H](CCCN)C(=O)N[C@@H](CC(=O)O)C(=O)N[C@H](C)C(=O)N[C@@H](CC(=O)O)C(=O)NCC(=O)N[C@H](CO)C(=O)N[C@@H]([C@H](C)CC(=O)O)C(=O)N[C@@H](CC(=O)c2ccccc2N)C(=O)O[C@@H]1C` [compound 42, N1-6-Dap] (Decanoyl-[X6][dN]DTG[Orn]D[dA]DG[dS][Glu(3R-Me)][Kyn]; ester 4-C), the MIC is 1.1 µg/mL in the test with E. faecalis (S613); 17.0 mg/L in the test with E. faecalis (R712); 0.5 mg/L in the test with S. aureus (hVISA, SR220). In addition, the “fold enhanced activity (compared with Dap)” value (“fold enhanced activity” below) in test [3] is reported as 5–15 fold.

As to `CCCCCCCCCC(=O)N[C@@H](Cc1cn(CC=C(CC)CC)c2ccccc12)C(=O)N[C@H](CC(N)=O)C(=O)N[C@@H](CC(=O)O)C(=O)N[C@@H]1C(=O)NCC(=O)N[C@@H](CCCN)C(=O)N[C@@H](CC(=O)O)C(=O)N[C@H](C)C(=O)N[C@@H](CC(=O)O)C(=O)NCC(=O)N[C@H](CO)C(=O)N[C@@H]([C@H](C)CC(=O)O)C(=O)N[C@@H](CC(=O)c2ccccc2N)C(=O)O[C@@H]1C` [compound 44, N1-7-Dap] (Decanoyl-[X4][dN]DTG[Orn]D[dA]DG[dS][Glu(3R-Me)][Kyn]; ester 4-C), the MIC was 0.3 to 0.6 µg/mL and 0.5 µg/mL in the test with E. faecalis (S613); 0.5 mg/L in test [2]; 4.3 mg/L in the test on E. faecalis (R712); 0.5 mg/L with S. aureus (hVISA, SR220).

As for `C=C(C)/C=C/Cc1[nH]c2ccccc2c1C[C@H](NC(=O)CCCCCCCCC)C(=O)N[C@H](CC(N)=O)C(=O)N[C@@H](CC(=O)O)C(=O)N[C@@H]1C(=O)NCC(=O)N[C@@H](CCCN)C(=O)N[C@@H](CC(=O)O)C(=O)N[C@H](C)C(=O)N[C@@H](CC(=O)O)C(=O)NCC(=O)N[C@H](CO)C(=O)N[C@@H]([C@H](C)CC(=O)O)C(=O)N[C@@H](CC(=O)c2ccccc2N)C(=O)O[C@@H]1C` [compound 46, C2R-16-Dap] (Decanoyl-[X12][dN]DTG[Orn]D[dA]DG[dS][Glu(3R-Me)][Kyn]; ester 4-C), the MIC in the test on S. aureus (hVISA, SR220) amounted to 17.0 mg/L.

Turning to `C=C(C)/C=C/C(C)n1cc(C[C@H](NC(=O)CCCCCCCCC)C(=O)N[C@H](CC(N)=O)C(=O)N[C@@H](CC(=O)O)C(=O)N[C@@H]2C(=O)NCC(=O)N[C@@H](CCCN)C(=O)N[C@@H](CC(=O)O)C(=O)N[C@H](C)C(=O)N[C@@H](CC(=O)O)C(=O)NCC(=O)N[C@H](CO)C(=O)N[C@@H]([C@H](C)CC(=O)O)C(=O)N[C@@H](CC(=O)c3ccccc3N)C(=O)O[C@@H]2C)c2ccccc21` (stereo partly drawn) [compound 48, N1R-18-Dap] (Decanoyl-[X10][dN]DTG[Orn]D[dA]DG[dS][Glu(3R-Me)][Kyn]; ester 4-C), the MIC with E. faecalis (R712) and with S. aureus (ATCC 25923) was 17.1 mg/L each time.

With `C=CC1(n2cc(C[C@H](NC(=O)CCCCCCCCC)C(=O)N[C@H](CC(N)=O)C(=O)N[C@@H](CC(=O)O)C(=O)N[C@@H]3C(=O)NCC(=O)N[C@@H](CCCN)C(=O)N[C@@H](CC(=O)O)C(=O)N[C@H](C)C(=O)N[C@@H](CC(=O)O)C(=O)NCC(=O)N[C@H](CO)C(=O)N[C@@H]([C@H](C)CC(=O)O)C(=O)N[C@@H](CC(=O)c4ccccc4N)C(=O)O[C@@H]3C)c3ccccc32)CCCCC1` [compound 50, N1R-19-Dap] (Decanoyl-[X8][dN]DTG[Orn]D[dA]DG[dS][Glu(3R-Me)][Kyn]; ester 4-C), the MIC in the test with E. faecalis (R712) stood at 17.3 mg/L.

Turning to `CCCCCCCCCC(=O)N[C@@H](Cc1cn(CC=C2CCCCC2)c2ccccc12)C(=O)N[C@H](CC(N)=O)C(=O)N[C@@H](CC(=O)O)C(=O)N[C@@H]1C(=O)NCC(=O)N[C@@H](CCCN)C(=O)N[C@@H](CC(=O)O)C(=O)N[C@H](C)C(=O)N[C@@H](CC(=O)O)C(=O)NCC(=O)N[C@H](CO)C(=O)N[C@@H]([C@H](C)CC(=O)O)C(=O)N[C@@H](CC(=O)c2ccccc2N)C(=O)O[C@@H]1C` [compound 51, N1-19-Dap] (Decanoyl-[X2][dN]DTG[Orn]D[dA]DG[dS][Glu(3R-Me)][Kyn]; ester 4-C), the MIC with E. faecalis (S613) was 1.3 µg/mL; in test [1], 1.3 mg/L; in test [2] it was 2.6 mg/L; with E. faecalis (R712) it was 5.2 mg/L; in the test with S. aureus (hVISA, SR220), 1.1 mg/L. Further, the “fold enhanced activity” value in test [3] is on record as 5–15 fold.

Take `CCCCCCCCCC(=O)N[C@@H](Cc1c[nH]c2cc(CC3=CCCCC3)ccc12)C(=O)N[C@H](CC(N)=O)C(=O)N[C@@H](CC(=O)O)C(=O)N[C@@H]1C(=O)NCC(=O)N[C@@H](CCCN)C(=O)N[C@@H](CC(=O)O)C(=O)N[C@H](C)C(=O)N[C@@H](CC(=O)O)C(=O)NCC(=O)N[C@H](CO)C(=O)N[C@@H]([C@H](C)CC(=O)O)C(=O)N[C@@H](CC(=O)c2ccccc2N)C(=O)O[C@@H]1C` [compound 52, C6-20-Dap] (Decanoyl-[X1][dN]DTG[Orn]D[dA]DG[dS][Glu(3R-Me)][Kyn]; ester 4-C): the MIC with E. faecalis (S613) is 0.3 to 0.6 µg/mL and 0.4 µg/mL; in test [1], 0.4 mg/L; in test [2] it was 0.2 mg/L; in the test with E. faecalis (R712) it was 6.2 mg/L; with S. aureus (hVISA, SR220) it was 0.5 mg/L. In the test on DapR S. aureus (DapR S. aureus strains (Table 1), range over the named analogs and strains), the MIC range fell in the range of 0.2 to 0.5 mg/L. Further, the “fold improvement in antibacterial activity over Dap” value in the test on DapR S. aureus (DapR S. aureus, relative potency, Fig. S1) was 30–80 fold. The “fold enhanced activity” value in test [3] was 5–15 fold.

Take `CCCCCCCCCC(=O)N[C@@H](Cc1cn(CC2=CCCCC2)c2ccccc12)C(=O)N[C@H](CC(N)=O)C(=O)N[C@@H](CC(=O)O)C(=O)N[C@@H]1C(=O)NCC(=O)N[C@@H](CCCN)C(=O)N[C@@H](CC(=O)O)C(=O)N[C@H](C)C(=O)N[C@@H](CC(=O)O)C(=O)NCC(=O)N[C@H](CO)C(=O)N[C@@H]([C@H](C)CC(=O)O)C(=O)N[C@@H](CC(=O)c2ccccc2N)C(=O)O[C@@H]1C` [compound 53, N1-20-Dap] (Decanoyl-[X7][dN]DTG[Orn]D[dA]DG[dS][Glu(3R-Me)][Kyn]; ester 4-C): the MIC in the test on E. faecalis (S613) was 17.1 µg/mL; in test [1], 17.1 mg/L; in test [2] it was 17.1 mg/L; in the test on E. faecalis (R712), greater than 17.1 mg/L.

In the case of `CCCCCCCCCC(=O)N[C@@H](Cc1c[nH]c2cc(C/C=C/c3ccccc3)ccc12)C(=O)N[C@H](CC(N)=O)C(=O)N[C@@H](CC(=O)O)C(=O)N[C@@H]1C(=O)NCC(=O)N[C@@H](CCCN)C(=O)N[C@@H](CC(=O)O)C(=O)N[C@H](C)C(=O)N[C@@H](CC(=O)O)C(=O)NCC(=O)N[C@H](CO)C(=O)N[C@@H]([C@H](C)CC(=O)O)C(=O)N[C@@H](CC(=O)c2ccccc2N)C(=O)O[C@@H]1C` [compound 54, C6-22-Dap] (Decanoyl-[X11][dN]DTG[Orn]D[dA]DG[dS][Glu(3R-Me)][Kyn]; ester 4-C), the MIC in the test on E. faecalis (R712) came to 8.7 mg/L.

Source of the values: publication PMC7447621, “Chemoenzymatic synthesis of daptomycin analogs active against daptomycin-resistant strains” (Applied Microbiology and Biotechnology, 2020).
